Where no end group is shown, it is not given here.
Key:
[1] = target: Bone sialoprotein-binding protein (Bbp) residues 273-598 (N2 and N3 domains) (S. aureus) (UniProt Q14U76); assay: ITC; 500 μmol/L peptide in the syringe titrated into 50 μmol/L Bbp^273−598 in the cell; 25°C; 200 mmol/L NaCl, 20 mmol/L HEPES pH 7.5; Microcal iTC200
Bbp^273−598 = target: T1, Bbp^273−598 (Staphylococcus aureus, UniProt Q14U76); assay: Isothermal titration calorimetry (ITC), Fg α^561−575 titrated into Bbp^273−598; format: binding; conditions: 25°C, Microcal iTC200, cell 50 μmol/L Bbp^273−598, syringe 500 μmol/L peptide, 200 mmol/L NaCl, 20 mmol/L HEPES pH 7.5, first peak not used for analysis
T1 construct: covering residues Asn^273–Pro^598 of Bbp from S. aureus; GST (cleaved; GPLGS remains at the N-terminus) (N, cleaved yes); made in house; host or cells: Escherichia coli BL21
T1 sequence (Q14U76 273-598): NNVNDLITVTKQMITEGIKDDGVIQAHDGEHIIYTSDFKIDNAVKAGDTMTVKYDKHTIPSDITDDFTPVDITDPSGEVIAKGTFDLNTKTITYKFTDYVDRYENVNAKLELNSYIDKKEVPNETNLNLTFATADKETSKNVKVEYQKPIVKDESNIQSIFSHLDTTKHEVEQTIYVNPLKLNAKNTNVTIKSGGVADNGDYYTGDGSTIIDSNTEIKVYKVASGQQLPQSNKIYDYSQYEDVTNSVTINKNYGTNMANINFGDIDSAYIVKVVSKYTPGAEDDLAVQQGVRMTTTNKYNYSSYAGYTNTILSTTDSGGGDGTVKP
Source text: (§1) The fragment of the Bbp gene (corresponding to 273–598 aa) was amplified using S. aureus ATCC 25923 genomic DNA by PCR. The gene fragments of mutated proteins Bbp^T582A and Bbp^L584A followed the same protocol. After digestion with BamHI and XhoI (NEB), the amplified fragments were cloned into the prokaryotic expression vector pGEX-6p-1 (GE Healthcare Life Sciences) to produce the GST-Bbp fusion protein and were confirmed by DNA sequencing. The recombinant protein was expressed in Escherichia coli strain BL21 with a high yield.
The recombinant protein was firstly purified by GST-affinity column and digested with PreScission protease overnight. The eluant was collected and concentrated for further purification using gel filtration chromatography (Superdex-200 column, GE Healthcare) in buffer containing 20 mmol/L HEPES pH 7.5, 200 mmol/L NaCl, 2 mmol/L DTT on the FPLC system (GE Healthcare Life Sciences). The proteins in every step of purification were analyzed by SDS-PAGE.
(§2) The peptide corresponding to the fibrinogen α^561−575 was synthesized as previously described (Vazquez et al., [2011]).
ITC experiments were carried out at 25°C using a Microcal iTC200 instrument (GE Healthcare). […] The data were fitted and analyzed using the Origin 7 software package (Microcal).

Bbp^L584A = target: T2, Bbp^L584A (Staphylococcus aureus, UniProt Q14U76, L584A); assay: Surface plasmon resonance (SPR), immobilized mutant L584A; conditions: BIAcore T200, L584A mutant immobilized on CM5 chip (3375RU), peptide 62.5 to 0.976 μmol/L in 200 mmol/L NaCl, 20 mmol/L HEPES (pH 7.5), 30 μL/min, binding 60 s, dissociation 120 s
T2 construct: The fragment of the Bbp gene (corresponding to 273–598 aa) was amplified; GST (pGEX-6p-1) (N); made in house; host or cells: Escherichia coli BL21
T2 sequence (Q14U76 273-598 L584A): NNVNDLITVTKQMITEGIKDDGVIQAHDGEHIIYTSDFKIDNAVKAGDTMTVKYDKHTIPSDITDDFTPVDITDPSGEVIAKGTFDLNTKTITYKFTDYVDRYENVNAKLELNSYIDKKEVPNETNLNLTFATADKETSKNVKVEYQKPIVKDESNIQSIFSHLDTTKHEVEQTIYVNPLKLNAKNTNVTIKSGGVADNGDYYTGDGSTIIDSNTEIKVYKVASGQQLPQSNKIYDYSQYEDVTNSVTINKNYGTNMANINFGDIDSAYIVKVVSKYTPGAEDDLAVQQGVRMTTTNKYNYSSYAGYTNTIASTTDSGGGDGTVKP
Source text: (§3) Figure 5 SPR analyses of the interactions between Bbp ^273−598 WT and mutants (T582A and L584A) and the Fg α ^561−575 (A–C), respectively. The proteins were immobilized on a BIA-core sensor chip.
as §1, §2
(§4) The interaction affinities between Fg α^561−575 and Bbp^273−598 protein were conducted by surface plasmon resonance (SPR) using BIAcore T200 instrument (GE Healthcare). The wild type Bbp^273−598 protein and two mutants were immobilized, respectively, on a CM5 sensor chip in 10 mmol/L sodium acetate, pH 4.5. The immobilization level was 3375RU. The synthetic peptide in 200 mmol/L NaCl and 20 mmol/L HEPES (pH 7.5) was injected on the protein-coated surface at various concentrations at 30 μL/min. The binding and dissociation was 60 s and 120 s, respectively.

Bbp^T582A = target: T3, Bbp^T582A (Staphylococcus aureus, UniProt Q14U76, T582A); assay: Surface plasmon resonance (SPR), immobilized mutant T582A; conditions: BIAcore T200, T582A mutant immobilized on CM5 chip (3375RU), peptide 62.5 to 0.976 μmol/L in 200 mmol/L NaCl, 20 mmol/L HEPES (pH 7.5), 30 μL/min, binding 60 s, dissociation 120 s
T3 construct: The fragment of the Bbp gene (corresponding to 273–598 aa) was amplified; GST (pGEX-6p-1) (N); made in house; host or cells: Escherichia coli BL21
T3 sequence (Q14U76 273-598 T582A): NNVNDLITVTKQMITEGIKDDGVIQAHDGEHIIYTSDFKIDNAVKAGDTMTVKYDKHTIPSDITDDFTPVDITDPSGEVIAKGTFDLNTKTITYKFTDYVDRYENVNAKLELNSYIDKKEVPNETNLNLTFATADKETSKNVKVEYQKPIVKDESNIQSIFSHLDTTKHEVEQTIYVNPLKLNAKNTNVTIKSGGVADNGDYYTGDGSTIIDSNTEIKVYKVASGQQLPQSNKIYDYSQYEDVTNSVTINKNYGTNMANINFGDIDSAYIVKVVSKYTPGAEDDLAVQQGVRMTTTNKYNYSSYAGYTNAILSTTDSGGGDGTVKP
Source text: as §3, §1, §2, §4

[2] = target: T4, Bone sialoprotein-binding protein (Bbp) residues 273-598 (N2 and N3 domains) (S. aureus, UniProt Q14U76 273-598); assay: SPR
T4 chain: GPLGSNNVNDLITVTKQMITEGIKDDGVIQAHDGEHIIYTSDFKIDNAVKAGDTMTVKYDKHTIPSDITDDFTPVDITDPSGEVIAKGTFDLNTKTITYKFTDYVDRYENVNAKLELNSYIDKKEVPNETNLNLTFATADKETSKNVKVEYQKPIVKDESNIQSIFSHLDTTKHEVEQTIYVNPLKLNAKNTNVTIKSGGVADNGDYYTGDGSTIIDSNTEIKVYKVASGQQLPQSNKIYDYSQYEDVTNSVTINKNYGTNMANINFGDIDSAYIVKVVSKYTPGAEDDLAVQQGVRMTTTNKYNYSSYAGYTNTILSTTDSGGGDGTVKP

Question: With “Fibrinogen α chain peptide, residues 561-575” as the molecule, how does the Kd [1] read?
Answer: 290 nM

Question: Which results are given for SKQFTSSTSYNRGDS [Fg α^561−575]?
Answer: Kd (Bbp^273−598): 290 nM; Kd (Bbp^L584A): 456 nM; Kd (Bbp^T582A): 537 nM

Question: With SKQFTSSTSYNRGDS [Fibrinogen α chain peptide, residues 561-575] as the molecule, how does the Kd [2] read?
Answer: 1620 nM
